Source: US6677501B2, “P2X7 receptor-deficient mice and uses thereof” (Pfizer, Inc., priority 2000, dated 2004)
Values joined by “and” are separate entries in the source; they are usually repeats but may differ in a detail not shown here. Identical values can stand only once.

Experiments:
[1] = tested on: mouse peritoneal macrophages; test: YoPro Yellow uptake by peritoneal macrophages; type: cell-based; conditions: 5 mM ATP
Method: Peritoneal macrophages were washed with Isotonic Medium (15 mM Hepes, pH 7.2, 135 mM NaCl, 5 mM KCl, […], […]) by centrifugation and the resulting cell pellet was suspended in Isotonic Medium to achieve a final cell concentration of 1×10^6 cells/ml. Fifty μl of this cell suspension then was placed into wells of a Microfluor “B” U-bottom plate (Dynatech, Chantilly, Va.), and 50 μl of 2 μM YoPro Yellow (Molecular Probes, Eugene, Ore.); the fluorescent dye was dissolved in Isotonic Medium. Wells were then adjusted to 5 mM ATP or 0.0075% saponin by addition of concentrated stock solutions of these agents. Fluorescence was monitored as a function of time at 37° C., excitation, 450 nm/emission, 530 nm.

[2] = tested on: LPS-activated peritoneal macrophages; test: Stimulus-induced IL-1β posttranslational processing in vitro; type: cell-based, mouse; conditions: 35S-methionine-labeled, 30 min, 5 mM ATP or 20 μM nigericin
Method: (§1) Macrophages from wild type and P2×7^−/− animals (1×10^6 cells seeded per well of 6-well cluster plates) were stimulated with 1 μg/ml E. coli LPS (Serotype 055 B5 obtained from Sigma; St. Louis, Mo.) for 75-90 minutes and then rinsed with 2 ml of methionine-free RPMI medium containing 100 units/mi penicillin, 100 μg/ml streptomycin, 1% dialyzed FBS, 1 μg/ml LPS, and 25 mM Hepes, pH 7.3 (Pulse Medium). One ml of Pulse Medium containing 83 μCi/Ml of ^35S-methionine (Amersham Corp, Chicago, Ill.) then was added to each well, and the cells were labeled at 37° C. for 1 hour. These labeled cells subsequently were rinsed twice with RPMI 1640 medium containing 100 units/mil penicillin, 100 μg/ml streptomycin, 1% FBS, 2 mM glutamine, 1 μg/ml LPS and 25 mM Hepes, pH 7.3 (Chase Medium). One ml of Chase Medium (containing no effector (control) or containing 05 mM ATP, or 20 mM nigericin) was then added to each well, and the cells were chased at 37° C. for 30 minutes. Media were harvested and clarified by centrifugation (6000×g for 5 minutes) to remove cells and/or cell debris. Cell monolayers were suspended in 1 ml of a lysis buffer composed of 1% Triton X-100, 150 mM NaCl, 25 mM Hepes, pH 7, 0.1 mM PMSF, 1 mg/ml ovalbumin, 1 mM iodoacetic acid, 1 μg/ml pepstatin, and 1 μg/ml leupeptin. Clarified media samples were adjusted to the same final Triton X-100 and protease inhibitor concentrations by addition of aliquots from concentrated stocks of these reagents. After a 30 minute incubation on ice, all samples were clarified by centrifugation at 45,000 rpm for 30 minutes in a TLA-45 rotor (Beckman, Palo Alto, Calif.), the resulting supernatants were recovered, and IL-1β was immunoprecipitated from these samples using a goat anti-murine IL-1β serum obtained from Dr. Ivan Otterness (Pfizer Central Research, Groton, Conn.). Immnunoprecipitates were fractionated by SDS gel electrophoresis, the quantity of radioactivity associated with individual IL-1β polypeptide species was determined by scanning dried gels with a Phosphoimager.

[3] = tested on: LPS-activated peritoneal macrophages; test: LDH release from LPS-activated macrophage cultures; type: cell-based, mouse; conditions: 30 min
Method: FIG. 6B is a graphic representation showing the percentage of lactate dehydrogenase (LDH) released from the total culture associated LDH in the samples described in FIG. 6A;
as §1, with “After a 30 minute incubation on ice, all samples were clarified by centrifugation at 45,000 rpm for 30 minutes in a TLA-45 rotor (Beckman, Palo Alto, Calif.), the resulting supernatants were recovered, and IL-1β was immunoprecipitated from these samples using a goat anti-murine IL-1β serum obtained from Dr. Ivan Otterness (Pfizer Central Research, Groton, Conn.).” left out

[4] = tested on: IL-1β; test: ATP-induced IL-1β posttranslational processing in vivo (peritoneal lavage ELISA); design: species or system mouse
Method: (§2) ATP-Induced IL-1β Posttranslational Processing In Vivo Groups of mice were injected intraperitoneally (ip) with 1 μg of LPS. Two hours after this LPS injection, mice were injected ip with either 30 mM ATP (adjusted to pH 7) or PBS. Mice were sacrificed 30 minutes or 120 minutes after the ATP or PBS injection and peritoneal cavities were lavaged, each with 3 ml of RPMI (5% FCS). Samples of peritoneal lavages were spun down, supernatants were collected and tested for the presence of IL-1β and IL-6 using ELISAs (Amersham Life Sciences, Arlington Heights, Va. and Endogen, Woburn, Mass., respectively).

[5] = tested on: IL-6; test: ATP-induced IL-6 release in LPS-primed mice (peritoneal lavage ELISA); type: in vivo, mouse; conditions: for IL-6 (ng/ml), ATP Challenge, P2×7R-/-: LPS-primed P2×7R-/- mice; for IL-6 (ng/ml), ATP Challenge, P2×7R-/- / IL-6 (ng/ml), ATP Challenge, WT: ip ATP, peritoneal lavage; for IL-6 (ng/ml), ATP Challenge, WT: LPS-primed wild-type mice
Method: as §2
As noted earlier, IL-1 signaling often leads to the production of other cytokines such as IL-6 (Allen et al. (2000) J. Exp. Med. 191:859-869). […] Two hours later an injection of ATP (or PBS) was administered to promote IL-1 posttranslational processing and the mice were incubated for an additional 4 hours. Peritoneal lavages were collected at several times during the course of the experiment and analyzed for IL-6 by ELISA. […] Mice that received an initial priming injection of LPS followed by PBS yielded levels of IL-6 at 1 and 2 hours (4 to 5 ng/ml) that were elevated above those recovered from mice injected with the combination of phosphate buffered saline and ATP (FIG. 8). By 4 hours, however, IL-6 levels recovered from the LPS-PBS treated animals returned to baseline (FIG. 9).

[6] = tested on: P2×7R; conditions: cited from earlier work
[7] = tested on: other P2× receptors; conditions: cited from earlier work

With `Nc1ncnc2c1ncn2[C@@H]1O[C@H](COP(=O)(O)OP(=O)(O)OP(=O)(O)O)[C@@H](O)[C@H]1O` [ATP] the “YoPro Yellow fluorescence intensity” value ([1]; P2×7R-/- macrophages) was “did not result in time-dependent increase in fluorescence intensity”, the “YoPro Yellow fluorescence intensity” value ([1]; wild-type macrophages) was “time dependent increase in fluorescence intensity” and the “extracellular 17 kDa IL-1β as percentage of total radiolabeled IL-1β recovered” value (“extracellular 17 kDa IL-1β as percentage” below) ([2]; P2×7R-/- macrophages) was “did not release any radiolabeled IL-1β”. The “extracellular 17 kDa IL-1β as percentage” value ([2]; wild-type macrophages) was 64%, the “release of lactate dehydrogenase (LDH)” value ([3]; wild-type macrophages) was “enhanced release” and the “IL-1β in peritoneal lavage after ATP challenge” value ([4]; LPS-primed mice heterozygous (+/-) for the P2×7R disruption, 30 min) was “A similar pattern”. The “IL-1 (ng/ml), ATP Challenge, WT” value ([4]; LPS-primed wild-type mice, ip ATP, 120 min post challenge, peritoneal lavage) was 0.34 ng/mL and 0.33 ± 0.08 ng/mL, the “IL-6 (ng/ml), ATP Challenge, P2×7R-/-” value ([5]; 30 min post challenge) was 9 ± 1 ng/mL and the “IL-6 (ng/ml), ATP Challenge, P2×7R-/-” value ([5]; 120 min post challenge) was 6 ng/mL. The “IL-6 (ng/ml), ATP Challenge, WT” value ([5]; 30 min post challenge) was 8.2 ± 1.7 ng/mL, the “IL-6 (ng/ml), ATP Challenge, WT” value ([5]; 120 min post challenge) was 17 ng/mL and 16.8 ± 2.3 ng/mL and the “peak lavage fluid IL-6” value ([5]; wild-type mice, LPS at time 0, ATP at 2 hours, 4 hour time point) was > 25 ng/mL. For the same compound, the “lavage fluid IL-6” value ([5]; wild-type mice, priming injection of PBS followed 2 hours later by ATP) was “did not contain significant levels of IL-6 at any time”, the “levels of ATP required to achieve activation” value [6] was > 1 mM and the “ATP concentrations at which receptors activate” value [7] was ≤ 100 µM.

For `CO[C@@H]1C[C@@H](C[C@H]2CC[C@H](C)[C@H]([C@@H](C)C(=O)O)O2)O[C@]2(O[C@](C)([C@H]3CC[C@@](C)([C@@H]4O[C@@H]([C@H]5O[C@@](O)(CO)[C@H](C)C[C@@H]5C)C[C@@H]4C)O3)C[C@H]2C)[C@@H]1C` [nigericin], the “extracellular 17 kDa IL-1β as percentage” value ([2]; P2×7R-/- macrophages) was 74%, the “extracellular 17 kDa IL-1β as percentage” value ([2]; wild-type macrophages) was 66% and the “release of lactate dehydrogenase (LDH)” value ([3]; P2×7R-/- macrophages) was “comparable quantities of LDH”. For the same compound, the “release of lactate dehydrogenase (LDH)” value ([3]; wild-type macrophages) was “comparable quantities of LDH”.
